Read-outs that look alike come from different tables or passages of the source.
Legend:
[1] = Pharmacokinetic study in rat models (single dose, infusion); assay type: in vivo; conditions: 15 mg/kg, infusion time 1 h
Source text: 5. […] Thus, vancomycin was available for a prolonged period and less frequent administration is enabled.

[2] = system: rats; assay: Urinary biomarkers of renal damage (KIM-1, clusterin, osteopontin) in the rat toxicity study; assay type: in vivo; conditions: 150 mg/kg daily for 5 days, FIG. 8
Procedure: (§1) To evaluate toxicity of the liposomal formulations, rats were dosed daily with 150 mg/kg test formulation for 5 days, which is about 10-fold of a dose for human administration (typically 1 g).
(§2) The endpoints for renal damage were urinary biomarkers (KIM-1, Clusterin, Osteopontin), a plasma biomarker (creatinine), and histopathology findings for the kidney. Here, blood sampling was performed at a total volume of 2 mL and clinical chemistry samples were drawn pre-dosing, day 3, and day 5 (0.25 mL each), and pharmacokinetic samples were drawn on Day 1 (4 samples of 0.125 mL), Day 3 (4 samples of 0.125 mL), and Day 5 (2 samples of 0.125 mL). For each animal, at euthanasia, kidneys were formalin fixed and flash frozen in liquid nitrogen. Samples were analyzed for histopathological grading using standard procedures well known in the art.
Further exemplary results are shown for selected urinary markers in FIG. 8. Here, the markers included KIM-1, clusterin, and osteopontin (OPN). […] On the other hand, the markers remained substantially unchanged or only moderately elevated over control in both treatment groups where liposomal compositions according to the inventive subject matter were used.

[3] = system: rats; assay: Kidney histopathology in the rat toxicity study; assay type: in vivo; conditions: 150 mg/kg daily for 5 days
Procedure: as §1, §2

[4] = cited from earlier work

Structure (SMILES): CN[C@H](CC(C)C)C(=O)N[C@H]1C(=O)N[C@@H](CC(N)=O)C(=O)N[C@H]2C(=O)N[C@H]3C(=O)N[C@H](C(=O)N[C@H](C(=O)O)c4cc(O)cc(O)c4-c4cc3ccc4O)[C@H](O)c3ccc(c(Cl)c3)Oc3cc2cc(c3O[C@@H]2O[C@H](CO)[C@@H](O)[C@H](O)[C@H]2O[C@H]2C[C@](C)(N)[C@H](O)[C@H](C)O2)Oc2ccc(cc2Cl)[C@H]1O [Vancomycin]
- Lambda z [1]: 0.879
- AUC(0-inf) ([1]; serum, iv): 34800 ng·h/mL
- Cmax ([1]; serum, iv): 34600 ng/mL
- Tmax ([1]; serum, iv): 0 h
- half-life ([1]; serum, iv): 48 min
- urinary markers KIM-1, clusterin, osteopontin (OPN) [2]: significant elevations of all markers
- kidney histopathological findings [3]: significant proximal tubular cell injury and repair
- half-life ([4]; humans with normal renal function): three to six
- mean plasma concentration ([4]; humans, multiple intravenous infusions of 1 gram over 60 minutes, 11 hours after end of infusion): 8000 ng/mL
- recovered unchanged in urine ([4]; within 24 h after a single dose): 80%-90

Source: patent US20220296515A1, “Vancomycin Liposome Compositions and Methods” (Nevakar Injectables Inc., priority 2019, published 2022)
